{"source": "the supplement of paper PMC10307832", "key": {"Vemurafenib": {"compound": "CCCS(=O)(=O)Nc1ccc(F)c(C(=O)c2c[nH]c3ncc(-c4ccc(Cl)cc4)cc23)c1F [Vemurafenib]", "assay": "relative viability (nuclei count vs DMSO), 5 days (fraction); higher = more cells survive", "outline": "(§1)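 Viability was read as treated-well nuclei divided by vehicle-well nuclei, using the median across plates. Lung cancer cell lines in 1536-well plates were kept overnight at 37 °C, pinned with five √10-spaced library-drug doses, and after 5 days were Hoechst-stained, imaged at 4× and counted in MetaXpress. Plates passed only with control CV below 25% and at least one doubling.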"}, "OSI-027": {"compound": "COc1cccc2cc(-c3nc([C@H]4CC[C@H](C(=O)O)CC4)n4ncnc(N)c34)[nH]c12 [OSI-027]", "assay": "relative viability (nuclei count vs DMSO), 5 days (fraction); higher = more cells survive", "outline": "as §1"}}, "data": [{"cell line": "UMC-11", "values": [{"measurement": "relative viability", "setting": "Vemurafenib; 0.03162 µM", "value": 0.923}, {"measurement": "relative viability", "setting": "Vemurafenib; 0.1 µM", "value": 1.02}, {"measurement": "relative viability", "setting": "Vemurafenib; 0.3162 µM", "value": 0.876}, {"measurement": "relative viability", "setting": "Vemurafenib; 1 µM", "value": 0.777}, {"measurement": "relative viability", "setting": "OSI-027; 0.01 µM", "value": 0.913}, {"measurement": "relative viability", "setting": "OSI-027; 0.03162 µM", "value": 0.916}, {"measurement": "relative viability", "setting": "OSI-027; 0.1 µM", "value": 0.808}, {"measurement": "relative viability", "setting": "OSI-027; 0.3162 µM", "value": 0.704}, {"measurement": "relative viability", "setting": "OSI-027; 0.5 µM, anchor plate", "value": 0.49}, {"measurement": "relative viability", "setting": "OSI-027; 1 µM", "value": 0.561}]}]}
